Patent US8158621B2, “Methods of treating or preventing autoimmune diseases with 2,4-pyrimidinediamine compounds” (Rigel Pharmaceuticals, Inc., priority 2002, dated 2012)

What was measured:
[1] = tested on: basophil cells (human peripheral blood); experiment: Basophil ionomycin activation: histamine release assay; type: cell-based; conditions: basophils, ionomycin activation, histamine release; read-out: Basophils Ionomycin Histamine IC50
Method: The basophil activation assay was carried out using whole human peripheral blood from donors allergic to dust mites with the majority of the red blood cells removed by dextran sedimentation. Human peripheral blood was mixed 1:1 with 3% dextran T500 and RBCs were allowed to settle for 20-25min. The upper fraction was diluted with 3 volumes of D-PBS and cells were spun down for 10 min at 1500 rpm, RT. Supernatant was aspirated and cells were washed in an equal volume MT-buffer. Finally, cells were resuspended in MT-buffer containing 0.5% DMSO in the original blood volume. 80 uL cells were mixed with 20 uL compound in the presence of 0.5% DMSO, in triplicate, in a V-bottom 96-well tissue culture plate. A dose range of 8 compound concentrations was tested resulting in a 10-point dose response curve including maximum (stimulated) and minimum (unstimulated) response. […] The cells were stimulated for 30 minutes at 37° C., 5% CO2. The plate was spun for 10 min at 1500 rpm at room temperature and 80 uL the supernatant was harvested for histamine content analysis using the histamine ELISA kit supplied by Immunotech. The ELISA was performed according to supplier's instructions.
Assays for ionomycin-induced basophil cell degranulation were carried out as described for the Basophil IgE or Dustmite Activation Assay (Section 7.5.5, supra), with the exception that following incubation with compound, cells were stimulated with 20 μl of 2 μM ionomycin.

[2] = Sheep model of allergic asthma; type: in vivo
Method: In the sheep model of allergic asthma, sheep are administered aerosols of test article via an endotracheal tube, followed by an aerosol challenge with antigen extracted from the roundworm, Ascaris suum, to which the sheep are naturally allergic. Allergen challenge leads to direct bronchoconstriction (both EAR and LAR) and a persistent non-specific AHR. These three characteristics are similar to those seen in human allergic asthmatics. The activity of the test agent is determined by changes in the lung resistance (RL), which is calculated from measurements of transpulmonary pressure, flow, and respiratory volume. […] The LAR is a less pronounced increase in RL, which starts approximately 5-6 hours following allergen challenge and is resolved by 8 hours post-challenge. Twenty-four hours after the challenge, a dose response to carbachol is measured to determine the AHR, which is expressed as the dose of carbachol required to increase RL by 400% over baseline. (This measurement is referred to as the provocative concentration of carbachol that elicits a 400% increase in RL over baseline (PC400). The data are compared to historical control data for the same individual when administered a saline control aerosol and challenged with Ascaris suum.

[3] = tested on: IgE-induced degranulation of tissue mast cells; experiment: Mouse model of passive cutaneous anaphylaxis (PCA); type: in vivo; conditions: oral route in a PEG-based formulation (data not shown)
Method: This model provides a direct measure of IgE-induced degranulation of tissue mast cells. In this model, IgE primed animals are exposed to an allergen challenge, and the change in permeability of dermal vasculature that results from histamine release from mast cells is measured by change in the amount of dye leakage into surrounding tissue. Inhibition of mediator release by compounds that modulate mast cell degranulation is easily measured by extracting the dye from the tissue.
In the PCA assay mice are passively sensitized by intradermal injection with anti-dinitrophenol (DNP) IgE antibodies (Day −1). At predetermined times animals are treated with the test agent (Day 0). The modulatory effect of the agent on cutaneous mast cell degranulation is measured following intravenous injection of DNP conjugated to human serum albumin (HSA-DNP), together with Evans blue dye. The resulting cross-linking of the IgE receptor and subsequent mast cell degranulation-induced increase in vascular permeability is determined by measuring the amount of dye extravasation into the tissue. Dye is extracted from the tissue by formamide, and the absorbance of this extract is read at 620 nm.

Syk kinase = biological target: T1, Syk kinase (Homo sapiens, UniProt P43405); experiment: Syk kinase biochemical fluorescence polarization assay; conditions: isolated Syk kinase, fluorescence polarization, 4 uM ATP
T1 construct: purchased Upstate, Lake Placid NY

Primary T-cells = experiment: Primary T-cell cytokine production (αCD3/αCD28): IL-2; type: cell-based, human; conditions: read-out: 1° T-Cell IL2 IC50
Method: 2E8-4E8 PBMC or proliferating T cells grown in rIL-2 from healthy human donors were suspended in PBS were spun down (1500 rpm, 8-10 minutes) and resuspended in 100 ml RPMI Complete media (1% Pen-Strep, 1% L-Glutamine, 10 mM HEPES). The cells were plated in T175 flasks (37° C., 5% CO2) and monocytes were allowed to adhere for 2-3 hours. After monocyte attachment, non-adherent cells were harvested, counted by hemocytometer, washed several times with PBS then resuspended in Yssels Complete Media (Modified IMDM Media with 1% Human AB Serum, 1% Pen-Strep, 1% L-Glutamine, 10 mM HEPES) at […]. 90 uL of the cell dilution were then added to compounds diluted to 2× in Yssel's media and incubated for 30 minutes at 37° C. (5% CO2). After this preincubation step the compound/cell mixture was transferred to stimulation plates, as described below.
Stimulation plates were prepared by coating 96 well plates with 5 μg/ml αCD3 (BD PharMingen, Catalog #555336)+10 μg/ml αCD28 (Beckman Coulter, Catalog #IM1376) in PBS (no Ca^2+/Mg^2+) at 37° C. (5% CO2) for at 3-5 hours. After incubation with the stimulation antibodies, the cocktail was removed and the plates washed 3 times with PBS prior to addition of the primary T cell/compound mixture.
The compound/cell mixture was transferred to the stimulation plates and incubated for 18 hr at 37° C. (5% CO2). After the cell stimulation, ˜150 μl supernatant were transferred from each well into 96-well filter plates (Coming PVDF Filter Plates) spun down (2000 rpm, 2-3 minutes) and either used immediately for ELISA or LUMINEX measurements or frozen down at −80° C. for future use.
IL-2 ELISAs were performed using the Quantikine Human IL-2 ELISA kit (R&D Systems, Catalog # D2050) as described by the manufacturer and absorption was measured on a spectrophotometer at 450 nm wavelength. Blank values were substracted and absorbances were converted to pg/mL based on the standard curve.
Luminex immunoassay multiplexing for TNF, IL-2, GMSCF, IL-4 and IFNg was performed essentially as described by the manufacturer (Upstate Biotechnology). Essentially 50 uL of sample was diluted into 50 uL assay diluent and 50 uL incubation buffer, then incubated with 100 uL of the diluted detection antibody for 1 hr at RT in the dark. The filter plate was washed 2× in Wash Buffer, then incubated with 100 uL of the diluted secondary reagent (SAV-RPE) for 30 min at RT in the dark. Finally the plates were washed 3 times and bead identification and RPE fluorescent measured by the Luminex instrument.
Varied concentrations of compound were compared to solvent only to determine the inhibition of T-cell activation IC50 of each compound.

[4] = tested on: cultured human mast cells (CHMC); experiment: CHMC high cell density IgE activation: hexos; type: cell-based
Method: (§1) After sensitizing, cells are counted, pelleted (1000 rpm, 5-10 minutes), and resuspended at 1-2 ×10^6 cells/ml in MT buffer. Add 100 ul of cell suspension to each well and 100 ul of compound dilutions. The final vehicle concentration is 0.5% DMSO. Incubate at 37° C. (5% CO2) for 1 hour. After 1 hour of compound treatment, stimulate cells with 6× anti-IgE. Mix wells with the cells and allow plates to incubate at 37° C. (5% CO2) for one hour. After 1 hour incubation, pellet cells (10 minutes, 1000 RPM) and collect 200 ul per well of the supernatant, being careful not to disturb pellet. Place the supernatant plate on ice. During the 7-hour step (see next) perform tryptase assay on supernatant that had been diluted 1:500. Resuspend cell pellet in 240 ul of CM media containing 0.5% DMSO and corresponding concentration of compound. Incubate CHMC cells for 7 hours at 37° C. (5% CO2). After incubation, pellet cells (1000 RPM, 10 minutes) and collect 225 ul per well and place in −80° C. until ready to perform ELISAS. ELISAS are performed on appropriately diluted samples (determined empirically for each donor cell population so that the sample measurement falls within the standard curve) following the supplier's instructions.
Add 50 uL of BMMC cell supernatant (see above) to the hexoseaminidase substrate, place at 37° C. for 30 minutes and read the plate at 5, 10, 15, and 30 minutes on a spectrophotometer.

[5] = tested on: Human Jurkat T-cells (clone N); experiment: Jurkat T-cell activation (anti-TCR, CD69 upregulation); type: cell-based
In short: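 Readout is CD69 upregulation by flow cytometry (anti-CD69-APC, 20 min at 4 °C) after 20 h anti-TCR (C305, 500 ng/ml) stimulation at 37 °C.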

[6] = tested on: cultured human mast cells (CHMC); experiment: CHMC high cell density IgE activation: histamine; type: cell-based
Method: as §1

[7] = tested on: cultured human mast cells (CHMC); experiment: CHMC high cell density IgE activation: IL-13; type: cell-based
Method: as §1

[8] = tested on: cultured human mast cells (CHMC); experiment: CHMC high cell density IgE activation: tryptase; type: cell-based
Method: as §1

[9] = tested on: cultured human mast cells (CHMC); experiment: CHMC low cell density IgE activation: tryptase assay; type: cell-based; conditions: Low Density; read-out: CHMC anti-IgE Tryptase
In short: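 Supernatant tryptase activity, assayed with substrate for 30 min at room temperature, served as the degranulation measure. Mast cells (1000-1500 per well depending on donor) sat 1 hr at 37° C in MT before a 30 min anti-IgE challenge at 37° C.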

[10] = tested on: cultured human mast cells (CHMC); experiment: CHMC high cell density IgE activation: LTC4; type: cell-based
Method: as §1

[11] = tested on: cultured human mast cells (CHMC); experiment: CHMC low cell density ionomycin activation: tryptase assay; type: cell-based
[12] = tested on: cultured human mast cells (CHMC); experiment: CHMC high cell density IgE activation: TNFalpha; type: cell-based; conditions: read-out: CHMC high density TNF-alpha
Method: as §1

[13] = dose, pretreatment and vehicle per compound as in TABLE 5
[14] = Low Density, read-out: CHMC Ionomycin Tryptase

## CNC(=O)COc1cccc(Nc2ncc(C(F)(F)F)c(Nc3cccc(O)c3)n2)c1 [Compound R926742]
[1]
  IC50: > 10000 nM
[2]; administered in an aqueous suspension
  EAR: failed to inhibit
[2]; [13]
  LAR and AHR: blocked
[3]
  PCA response: able to inhibit the PCA response
Syk kinase
  IC50: 76 nM
Primary T-cells
  IC50: 717 nM

## O=C(c1cc2cc(Nc3ncc(F)c(Nc4cccc(O)c4)n3)ccc2o1)N1CCNCC1 [Compound R926502]
[1]
  IC50: > 10000 nM
[4]
  IC50: > 2000 nM
[5]
  IC50: 1630 nM
[6]
  IC50: > 2000 nM
[7]
  IC50: > 2000 nM
[8]
  IC50: > 2000 nM
Syk kinase
  IC50: 217 nM

## Nc1cc(Cl)cc(Nc2ncc(F)c(Nc3cc(N)cc(Cl)c3)n2)c1 [Compound R950141]
[9]
  IC50: 310 nM
[4]
  IC50: 567 nM
[10]
  IC50: 201 nM
[5]
  IC50: 2380 nM
[11]; [14]
  IC50: > 10000 nM
[6]
  IC50: 627 nM
[12]
  IC50: 1060 nM
[7]
  IC50: 798 nM
[8]
  IC50: 618 nM

## Cc1cc(Nc2ncc(F)c(Nc3cc(C)c(O)c(Cl)c3)n2)cc(Cl)c1O [Compound R940216]
[9]
  IC50: 268 nM
[4]
  IC50: < 1100 nM
[10]
  IC50: < 1100 nM
[5]
  IC50: 1280 nM
[11]; [14]
  IC50: 7300 nM
[6]
  IC50: 1180 nM
[12]
  IC50: 3190 nM
[7]
  IC50: 3010 nM
[8]
  IC50: < 1100 nM

## CNC(=O)COc1cccc(Nc2ncc(F)c(Nc3ccc4c(c3)OCCO4)n2)c1 [Compound R926495]
[1]
  IC50: > 10000 nM
[2]; [13]
  EAR: greatly reduced
  LAR and AHR: blocked
[5]
  IC50: 11900 nM
Primary T-cells
  IC50: 643 nM

## OCc1cc2cc(Nc3ncc(F)c(Nc4cccc(O)c4)n3)ccc2[nH]1 [Compound R926700]
[4]
  IC50: < 1100 nM
[10]
  IC50: < 1100 nM
[5]
  IC50: 510 nM
[11]; Low Density CHMC, ionomycin activation, tryptase release, read-out: CHMC Ionomycin Tryptase IC50
  IC50: > 10000 nM
[6]
  IC50: < 1100 nM
[12]
  IC50: < 1100 nM
[7]
  IC50: 2050 nM
[8]
  IC50: < 1100 nM
